Results: patent publication US12043599B2, “Herbicidal compounds” (SYNGENTA PARTICIPATIONS AG, priority 2018, dated 2024)

Columns and labels:
Assay type in all cases: in vivo
Conditions in all cases: 250 g/h, evaluated after 13 days
[1] = tested on: Alopecurus myosuroides (ALOMY); assay: Pre-emergence herbicidal glasshouse test, percentage damage
Summary of the method: (§1)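 Spray solution: acetone/water (50:50), 0.5% Tween 20, applied at 250 g/h. Timing: 1 d (pre-emergence) or 8 d (post-emergence) after sowing. Readout: % plant damage at 13 d, banded 1–5.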

[2] = tested on: Avena fatua (AVEFA); assay: as above
Summary of the method: as §1

[3] = tested on: Echinochloa crus-galli (ECHCG); assay: as above
Summary of the method: as §1

[4] = tested on: Lolium perenne (LOLPE); assay: as above
Summary of the method: as §1

[5] = tested on: Setaria faberi (SETFA); assay: as above
Summary of the method: as §1

[6] = tested on: Setaria faberi (SETFA); assay: Post-emergence herbicidal glasshouse test, percentage damage
Summary of the method: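 Wheat, barley and Setaria faberi were sprayed post-emergence after 8 days' growth (24/16 °C, 14 h light, 65% humidity) with compound in acetone/water (50:50) containing 0.5% Tween 20, at the indicated rates. On wheat, compounds were also applied with cloquintocet-mexyl at 50 g/ha. Damage was scored after 13 days on a five-point scale (5=80-100% to 1=0-19%).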

[7] = tested on: Alopecurus myosuroides (ALOMY); assay: as above
Summary of the method: as §1

[8] = tested on: Avena fatua (AVEFA); assay: as above
Summary of the method: as §1

[9] = tested on: Echinochloa crus-galli (ECHCG); assay: as above
Summary of the method: as §1

[10] = tested on: Lolium perenne (LOLPE); assay: as above
Summary of the method: as §1

Row | Structure (SMILES) | ALOMY PRE percentage damage (five point scale) [1] | AVEFA PRE percentage damage (five point scale) [2] | ECHCG PRE percentage damage (five point scale) [3] | LOLPE PRE percentage damage (five point scale) [4] | SETFA PRE percentage damage (five point scale) [5] | SETFA POST percentage damage (five point scale) [6] | ALOMY POST percentage damage (five point scale) [7] | AVEFA POST percentage damage (five point scale) [8] | ECHCG POST percentage damage (five point scale) [9] | LOLPE POST percentage damage (five point scale) [10]
1 | CC#Cc1cc(C)c(C2=C(OC(=O)C(C)(C)C)CC3(CCN(C(=O)N(C)C(=O)C(C)(C)C)CC3)CC2=O)c(C)c1 [Compound P54] | 4 (4=60-79%) | 4 (4=60-79%) | 5 (5=80-100%) | 5 (5=80-100%) | 5 (5=80-100%) | 5 (5=80-100%) | 5 (5=80-100%) | 4 (4=60-79%) | 5 (5=80-100%) | 5 (5=80-100%)
2 | CC#Cc1cc(C)c(C2C(=O)CC3(CCN(C(=O)NC(=O)c4ccccc4F)CC3)CC2=O)c(C)c1 [Compound A167] | 4 (4=60-79%) | 4 (4=60-79%) | 5 (5=80-100%) | 5 (5=80-100%) | 5 (5=80-100%) | 5 (5=80-100%) | 5 (5=80-100%) | 5 (5=80-100%) | 5 (5=80-100%) | 5 (5=80-100%)
3 | CC#Cc1cc(C)c(C2=C(OC(C)=O)CC3(CCN(C(=O)NC(C)=O)CC3)CC2=O)c(C)c1 [Compound P12] | 4 (4=60-79%) | 4 (4=60-79%) | 5 (5=80-100%) | 5 (5=80-100%) | 5 (5=80-100%) | 5 (5=80-100%) | 5 (5=80-100%) | 5 (5=80-100%) | 5 (5=80-100%) | 5 (5=80-100%)
4 | CC#Cc1cc(C)c(C2=C(OC(=O)OC)CC3(CCN(C(=O)NC(C)(C)C)CC3)CC2=O)c(C)c1 [Compound P13] | 5 (5=80-100%) | 5 (5=80-100%) | 5 (5=80-100%) | 5 (5=80-100%) | 5 (5=80-100%) | 5 (5=80-100%) | 5 (5=80-100%) | 5 (5=80-100%) | 5 (5=80-100%) | 5 (5=80-100%)
5 | CC#Cc1cc(C)c(C2=C(OC(=O)OCCOC)CC3(CCN(C(=O)OCCOC)CC3)CC2=O)c(C)c1 [Compound P52] | 5 (5=80-100%) | 5 (5=80-100%) | 5 (5=80-100%) | 5 (5=80-100%) | 5 (5=80-100%) | 5 (5=80-100%) | 5 (5=80-100%) | 5 (5=80-100%) | 5 (5=80-100%) | 5 (5=80-100%)
6 | CC#Cc1cc(C)c(C2=C(OC(=O)C(C)OC)CC3(CCN(C(=O)C(C)OC)CC3)CC2=O)c(C)c1 (stereo not shown) [Compound P6] | 5 (5=80-100%) | 5 (5=80-100%) | 5 (5=80-100%) | 5 (5=80-100%) | 5 (5=80-100%) | 5 (5=80-100%) | 5 (5=80-100%) | 5 (5=80-100%) | 5 (5=80-100%) | 5 (5=80-100%)
7 | CC#Cc1cc(C)c(C2C(=O)CC3(CCN(C(=O)COC4CC4)CC3)CC2=O)c(C)c1 [Compound A202] | 5 (5=80-100%) | 5 (5=80-100%) | 5 (5=80-100%) | 5 (5=80-100%) | 5 (5=80-100%) | 5 (5=80-100%) | 5 (5=80-100%) | 5 (5=80-100%) | 5 (5=80-100%) | 5 (5=80-100%)
8 | CC#Cc1cc(C)c(C2C(=O)CC3(CCN(C(=O)C4CC4)CC3)CC2=O)c(C)c1 [Compound A8, 3-(cyclopropanecarbonyl)-9-(2,6-dimethyl-4-prop-1-ynyl-phenyl)-3-azaspiro[5.5]undecane-8,10-dione] | 5 (5=80-100%) | 5 (5=80-100%) | 5 (5=80-100%) | 5 (5=80-100%) | 5 (5=80-100%) | 5 (5=80-100%) | 5 (5=80-100%) | 5 (5=80-100%) | 5 (5=80-100%) | 5 (5=80-100%)
9 | CC#Cc1cc(C)c(C2C(=O)CC3(CCN(C(=O)C4CC4)CC3)CC2=O)c(OC)c1 [Compound A78] | 5 (5=80-100%) | 5 (5=80-100%) | 5 (5=80-100%) | 5 (5=80-100%) | 5 (5=80-100%) | 5 (5=80-100%) | 5 (5=80-100%) | 5 (5=80-100%) | 5 (5=80-100%) | 5 (5=80-100%)
10 | CC#Cc1cc(C)c(C2=C(OC(=O)OC)CC3(CCN(S(=O)(=O)C(F)(F)F)CC3)CC2=O)c(C)c1 [Compound P11] | 5 (5=80-100%) | 3 (3=40-59%) | 5 (5=80-100%) | 5 (5=80-100%) | 5 (5=80-100%) | 5 (5=80-100%) | 5 (5=80-100%) | 5 (5=80-100%) | 5 (5=80-100%) | 4 (4=60-79%)
11 | CC#Cc1cc(C)c(C2C(=O)CC3(CCN(C(=O)N(C)C(C)=O)CC3)CC2=O)c(C)c1 [Compound A86] | 5 (5=80-100%) | 5 (5=80-100%) | 5 (5=80-100%) | 5 (5=80-100%) | 5 (5=80-100%) | 5 (5=80-100%) | 5 (5=80-100%) | 5 (5=80-100%) | 5 (5=80-100%) | 5 (5=80-100%)
12 | CC#Cc1cc(C)c(C2=C(OC(C)=O)CC3(CCN(C(=O)C4CC4)CC3)CC2=O)c(C)c1 [Compound P29] | 5 (5=80-100%) | 5 (5=80-100%) | 5 (5=80-100%) | 5 (5=80-100%) | 5 (5=80-100%) | 5 (5=80-100%) | 5 (5=80-100%) | 5 (5=80-100%) | 5 (5=80-100%) | 5 (5=80-100%)
13 | CC#Cc1cc(C)c(C2C(=O)CC3(CCN(C(=O)NC(=O)c4ccc(C(F)(F)F)cn4)CC3)CC2=O)c(C)c1 [Compound A168] | 4 (4=60-79%) | 4 (4=60-79%) | 5 (5=80-100%) | 4 (4=60-79%) | 5 (5=80-100%) | 4 (4=60-79%) | 4 (4=60-79%) | 4 (4=60-79%) | 5 (5=80-100%) | 4 (4=60-79%)
